Values of other authors as cited in patent publication US20250311762A1, “FORMULATION AND METHOD FOR AN EXERCISE SUPPORTING NUTRITIONAL SUPPLEMENT” (BullFit, LLC., priority 2024, published 2025).

Columns and labels:
[1] = test system: anaerobic strength performance; settings: athletes supplementing with Betaine
cognitive function = settings: 2 g per day for 5 days during a demanding military combat training course

Structure (SMILES)	squat, bench press, and other activities [1]	cognitive function relative to placebo (cognitive function)
C[N+](C)(C)CC(=O)[O-] [Betaine, trimethylglycine]	increased their squat, bench press, and other activities	–
N[C@@H](Cc1ccc(O)cc1)C(=O)O [L-tyrosine, L-Tyrosine]	–	improved various aspects of cognitive function relative to placebo
